Assays:
[1] = biological target: T1, Axl (Homo sapiens, UniProt P30530); experiment: HTRF KinEASE-TK biochemical potency assay, AXL; parameters: purchased Invitrogen; conditions: 5 nM AXL, 700 μM ATP, 800 nM TK Substrate-biotin
T1 sequence (P30530 26-894): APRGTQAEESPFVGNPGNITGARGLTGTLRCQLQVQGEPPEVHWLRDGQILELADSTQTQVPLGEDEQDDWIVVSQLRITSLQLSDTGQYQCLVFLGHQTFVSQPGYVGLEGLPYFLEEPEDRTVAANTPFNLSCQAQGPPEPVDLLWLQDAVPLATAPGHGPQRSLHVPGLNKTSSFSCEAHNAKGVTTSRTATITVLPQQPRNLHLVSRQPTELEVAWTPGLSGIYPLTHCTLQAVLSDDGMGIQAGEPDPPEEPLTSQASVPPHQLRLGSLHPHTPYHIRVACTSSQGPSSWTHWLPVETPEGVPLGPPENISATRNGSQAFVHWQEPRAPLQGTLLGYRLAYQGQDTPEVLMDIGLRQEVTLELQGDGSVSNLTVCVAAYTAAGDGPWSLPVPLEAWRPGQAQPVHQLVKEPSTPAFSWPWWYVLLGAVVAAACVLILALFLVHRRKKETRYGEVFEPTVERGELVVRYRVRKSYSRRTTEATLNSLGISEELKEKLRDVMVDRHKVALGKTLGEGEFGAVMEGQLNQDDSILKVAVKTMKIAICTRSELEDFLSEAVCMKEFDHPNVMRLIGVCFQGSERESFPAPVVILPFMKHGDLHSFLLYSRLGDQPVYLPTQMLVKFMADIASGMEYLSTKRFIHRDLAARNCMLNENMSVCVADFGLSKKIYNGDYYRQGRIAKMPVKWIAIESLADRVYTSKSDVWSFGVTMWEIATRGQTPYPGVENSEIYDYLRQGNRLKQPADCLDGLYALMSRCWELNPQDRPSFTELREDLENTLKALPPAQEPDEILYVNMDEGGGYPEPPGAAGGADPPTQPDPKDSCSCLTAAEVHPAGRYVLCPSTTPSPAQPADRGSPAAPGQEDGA
Description: Purified recombinant human AXL, TYRO3 and MER proteins were purchased from Invitrogen™. 10 nM AXL, 2 nM TYRO3 or MER were incubated with varying concentrations of compounds in 50 mM HEPES, pH 7.4, 10 mM MgCl2, 0.01% BSA, 1 mM DTT and 2% DMSO in a total volume of 20 μl in a 384-well microplate (Corning™ #3640) at RT for 1 h. The AXL, TYRO3 and MER enzymatic reaction was initiated by transferring 10 μl of enzyme and compound mixture into 10 μl of 1.6 μM TK Substrate-biotin (HTRF® KinEASE-TK kit, Cisbio) and 1400 μM ATP pre-incubated in 50 mM HEPES, pH 7.4, 10 mM MgCl2, 0.01% BSA, 1 mM DTT in a 384-well microplate (Corning™ #3640) at RT, giving the final reaction conditions: 5 nM AXL, 1 nM TYRO3 or MER, 800 nM TK Substrate-biotin and 700 μM ATP in 50 mM HEPES, pH 7.4, 10 mM MgCl2, 0.01% BSA, 1 mM DTT and 1% DMSO with varying concentrations of compounds. Following 2 h incubation at RT, the AXL, TYRO3 and MER enzymatic reaction was stopped by transfer of 10 μl of reaction into 10 μl of detection mix (400 nM Streptavidin-XL665, 200-fold dilution TK Antibody-Cryptate and detection buffer, HTRF® KinEASE-TK kit, Cisbio) in a white 384-well microplate (Perkin Elmer, OptiPlate 384). After 1 h incubation at RT, the plate was put into a plate reader (Evision) to read at 665/620 nm (acceptor/donor) for HTRF. The value of the DMSO blank (MIN inhibition=100% activity) was used as a negative control. The positive control was established by adding 5 μl of enzyme and DMSO mixture into 10 μl of detection mix followed by addition of 5 μl of TK Substrate-biotin and ATP mixture (MAX inhibition=0% activity). To calculate the percent activity, Equation 1 was used. Ratio 665/620 is the value at a given compound concentration: […]

[2] = biological target: T1, Axl; experiment: Axl NanoBRET intracellular kinase assay (intracellular binding, Cell Binding); parameters: host or cells: HEK-293; conditions: HEK-293 cells transfected with Axl-NanoLuc fusion vector; 0.35 μM K-5 NanoBRET tracer
Description: Axl NanoBRET™ intracellular kinase assay (Promega, N2540) was performed according to manufacturer's recommendation. In brief, HEK-293 cells are transiently transfected with Axl-NanoLuc fusion vector (Promega, NV1071), utilizing Fugene HD transfection reagent (Promega, E2311) a day before experiment following manufacturer's recommendation.
The day of the assay, the cells were collected and resuspended in Opti-MEM media (ThermoFisher, 31985070) at 2e5 cells/mL concentration. Testing compounds were serial diluted and dispensed into a white 384 well polystyrene plate at 200 nL in 100% DMSO. 40 μL of resuspended cells is then added per well for a final condition of 8K cells/well with 0.5% DMSO. After one-hour compound pre-incubation at 37° C. and 5% CO2, cells were further incubated with 0.35 μM K-5 NanoBRET tracer for two-hours at 37° C. and 5% CO2. […] of 3× substrate plus Inhibitor solution was prepared according to kits manual and added to the cells followed by a 30 second pulse centrifugation spin. The plate was then immediately read utilizing an Envision (Perkin Elmer) plate reader. The BRET signal is measured by taking the ratio of the emissions reading at 610 nm and 450 nm. Compound binding is based on the decrease BRET signal caused by the displacement of the K-5 tracer. […] IC50 value of compounds was determined by 4-parameter non-linear regression fitting of percent activity in GraphPad Prism software.

| IC50 [1] [nM] | IC50 [2] [nM] | SMILES |
| --- | --- | --- |
| < 100 | 100 to 1000 | Cc1cc(C(N)=O)ccc1-c1n[nH]c2ncc(-c3ccc4c(c3)CC[C@@H](N3CCCC3)CC4)cc12 [Example 86, (S)-3-Methyl-4-(5-(7-(pyrrolidin-1-yl)-6,7,8,9-tetrahydro-5H-benzo[7]annulen-2-yl)-1H-pyrazolo[3,4-b]pyridin-3-yl)benzamide] |
| < 100 | < 100 | CC(C)S(=O)(=O)c1ccc(-c2n[nH]c3ncc(-c4ccc5c(c4)CCC(C)(N4CCC[C@H]4C)CC5)cc23)cc1 (stereo partly drawn) [Example 43, 3-(4-(Isopropylsulfonyl)phenyl)-5-(7-methyl-7-((R)-2-methylpyrrolidin-1-yl)-6,7,8,9-tetrahydro-5H-benzo[7]annulen-2-yl)-1H-pyrazolo[3,4-b]pyridine] |
| 100 to 1000 | 100 to 1000 | CC(C)(O)c1ccc(-c2n[nH]c3ncc(-c4ccc5c(c4)CC[C@@H](N4CCCC4)CC5)cc23)c(Cl)c1 [Example 51, 2-(3-Chloro-4-{5-[(7S)-7-(pyrrolidin-1-yl)-6,7,8,9-tetrahydro-5H-benzo[7]annulen-2-yl]-1H-pyrazolo[3,4-b]pyridin-3-yl}phenyl)propan-2-ol] |
| – | 100 to 1000 | CC(C)(O)c1ccc(-c2n[nH]c3ncc(-c4ccc5c(c4)CCN(C4CCCC4)CC5)cc23)cc1 [Example 18, 2-{4-[5-(3-Cyclopentyl-2,3,4,5-tetrahydro-1H-3-benzazepin-7-yl)-1H-pyrazolo[3,4-b]pyridin-3-yl]phenyl}propan-2-ol] |
| – | 100 to 1000 | CC(O)(c1ccc(-c2n[nH]c3ncc(-c4ccc5c(c4)CCN(C4CCCC4)CC5)cc23)cc1)C(F)(F)F (stereo not shown) [Example 13, 2-{4-[5-(3-Cyclopentyl-2,3,4,5-tetrahydro-1H-3-benzazepin-7-yl)-1H-pyrazolo[3,4-b]pyridin-3-yl]phenyl}-1,1,1-trifluoropropan-2-ol] |
| 100 to 1000 | > 1000 | CC(C)(C#N)c1ccc(-c2n[nH]c3ncc(-c4ccc5c(c4)CCN(C4CCCC4)CC5)cc23)cc1 [Example 33, 2-(4-(5-(3-Cyclopentyl-2,3,4,5-tetrahydro-1H-benzo[d]azepin-7-yl)-1H-pyrazolo[3,4-b]pyridin-3-yl)phenyl)-2-methylpropanenitrile] |
| 100 to 1000 | > 1000 | CS(=O)(=O)c1ccc(-c2n[nH]c3nc(N)c(-c4ccc5c(c4)CCN(C4CCCC4)CC5)cc23)cc1 [Example 19, 5-(3-Cyclopentyl-2,3,4,5-tetrahydro-1H-3-benzazepin-7-yl)-3-(4-methanesulfonylphenyl)-1H-pyrazolo[3,4-b]pyridin-6-amine] |
| < 100 | 100 to 1000 | CC(C)(O)c1ccc(-c2c[nH]c3ncc(-c4ccc5c(c4)CCC(N4CCCC4)CC5)cc23)cc1Cl (stereo not shown) [Example 106, 2-(2-Chloro-4-{5-[7-(pyrrolidin-1-yl)-6,7,8,9-tetrahydro-5H-benzo[7]annulen-2-yl]-1H-pyrrolo[2,3-b]pyridin-3-yl}phenyl)propan-2-ol] |
| – | > 1000 | CC(C)(O)c1ccc(-c2n[nH]c3ncc(-c4ccc5c(c4)CN(C4CCCC4)CC5)cc23)cc1Cl [Example 29, 2-(2-Chloro-4-(5-(2-cyclopentyl-1,2,3,4-tetrahydroisoquinolin-7-yl)-1H-pyrazolo[3,4-b]pyridin-3-yl)phenyl)propan-2-ol] |
| – | > 1000 | CC(C)(O)c1ccc(-c2n[nH]c3ncc(-c4ccc5c(c4)CCN(C4CCCC4)CC5)c(F)c23)cc1Cl [Example 15, 2-{2-Chloro-4-[5-(3-cyclopentyl-2,3,4,5-tetrahydro-1H-3-benzazepin-7-yl)-4-fluoro-1H-pyrazolo[3,4-b]pyridin-3-yl]phenyl}propan-2-ol] |
| < 100 | < 100 | CCS(=O)(=O)c1ccc(-c2n[nH]c3ncc(-c4ccc5c(c4)CCC(C)(N4CCC[C@H]4C)CC5)cc23)cc1 (stereo partly drawn) [Example 44, 3-(4-(Ethylsulfonyl)phenyl)-5-(7-methyl-7-((R)-2-methylpyrrolidin-1-yl)-6,7,8,9-tetrahydro-5H-benzo[7]annulen-2-yl)-1H-pyrazolo[3,4-b]pyridine] |
| – | < 100 | C[C@@H]1CCCN1C1(C)CCc2ccc(-c3cnc4[nH]cc(C5CCN(S(C)(=O)=O)CC5)c4c3)cc2CC1 (stereo partly drawn) [Example 116, 1-Methanesulfonyl-4-(5-{7-methyl-7-[(2R)-2-methylpyrrolidin-1-yl]-6,7,8,9-tetrahydro-5H-benzo[7]annulen-2-yl}-1H-pyrrolo[2,3-b]pyridin-3-yl)piperidine] |
| – | > 1000 | CC(C)(O)c1ccc(-c2n[nH]c3ncc(-c4ccc5c(c4)CCN(C4CCCC4)C5)cc23)cc1Cl [Example 28, 2-(2-Chloro-4-(5-(2-cyclopentyl-1,2,3,4-tetrahydroisoquinolin-6-yl)-1H-pyrazolo[3,4-b]pyridin-3-yl)phenyl)propan-2-ol] |
| – | > 1000 | CC(C)(O)c1ccc(-c2n[nH]c3ncc(-c4ccc5c(c4)CCN(C4CCCC4)CC5)cc23)cc1OC(F)(F)F [Example 14, 2-{4-[5-(3-Cyclopentyl-2,3,4,5-tetrahydro-1H-3-benzazepin-7-yl)-1H-pyrazolo[3,4-b]pyridin-3-yl]-2-(trifluoromethoxy)phenyl}propan-2-ol] |
| – | < 100 | CNC(=O)c1ccc(-c2n[nH]c3ncc(-c4ccc5c(c4)CCC(C)(N4CCC[C@H]4C)CC5)cc23)cc1 (stereo partly drawn) [Example 71, N-Methyl-4-(5-{7-methyl-7-[(2R)-2-methylpyrrolidin-1-yl]-6,7,8,9-tetrahydro-5H-benzo[7]annulen-2-yl}-1H-pyrazolo[3,4-b]pyridin-3-yl)benzamide] |

From patent publication US20240246967A1, “AXL COMPOUNDS” (ARCUS BIOSCIENCES, INC., priority 2021, published 2024)
